Measurements from patent US20060234956A1, “Dicarboxylic acid ester derivatives of ginsenoside, pharmaceutical preparations containing the same, and preparation thereof” (Amersen Bioscience International, Inc., priority 2005, published 2006).
Read-outs that look alike come from different tables or passages of the source.

Legend:
Assay type in all cases: cell-based
[1] = tested on: OVCAR-3 (Adenocarcinoma, ovary, human); test: Anti-cancer activity assay, alamarBlue cell growth, OVCAR-3
Description: (§1) Four human tumor cell lines, OVCAR-3 (Adenocarcinoma, ovary, human), A549 (Carcinoma, lung, human), HT-29 (Adenocarcinoma, colon, moderately well-differentiated grade II, human) and MCF-7 (Breast adenocarcinoma, pleural effusion, human) were chosen in the experiments., which were obtained from American Type Culture Collection (ATCC) under codes of ATCC HTB-161, ATCC CCL-185, ATC HTB-38 and ATCC HTB-22, respectively. The culture medium used for OVCAR-3 was RPMI 1640 medium with 20% fetal bovine serum, which was supplemented with 0.01 mg bovine insulin per ml and 1% Antibiotice-Antimycotic. The culture medium used for A549 was F-12K nutrient mixture (Kaighn's Modification), 90%; and fetal bovine serum 10%. The culture medium used for HT-29 was McCoy's 5A medium, 90%; and fetal bovine serum, 10%. The culture medium used for MCF-7 was Minimum Essential Medium, 90%; and fetal bovine serum, 10%.
CK was dissolved in a mixed solvent of ethanol and Cremophor® RH40 (ethanol:Cremophor® RH40=1:1), and then diluted with sterile distilled water to obtain test solutions having CK concentrations of 10000, 1000, 100, 10, 1 μg/ml in 5% ethanol and 5% Cremophor® RH40.
(§2) Aliquots of 100 μl of cell suspension (about 1.0˜3.0×10^3/well) were placed in 96-well microtiter plates in an atmosphere of 5% CO2 at 37° C. After 24 hours, 100 μl of growth medium and 2 μl of test solution or vehicle (5% ethanol and 5% Cremophor® RH40) were added per respectively per well in duplicate for an additional 72-hour incubation. Thus, the final concentration of vehicle was 0.05%. The test compound, CK, was evaluated at concentrations of 100, 10, 1, 0.1, 0.01 μg/ml. At the end of the incubation, 20 μl of alamarBlue 90% reagent was added to each well for another 6-hour incubation before detection of cell viability by fluorescent intensity. Fluorescent intensity was measured using a SPECTRAfluor Plus plate reader with excitation at 530 nm and emission at 590 nm.
The tumor cell lines used were the same as in Experiment 1.
CK succinate and CK glutarate derivatives were directly dissolved in the phosphate buffered saline (PBS) having a pH of 7.4, and then diluted with sterile distilled water to obtain test solutions having concentrations of the CK derivative of 2000, 200, 20, 2, 0.2 μg/ml in 40% PBS
as §2, with “(about 5.0×10^3/well)” for “(about 1.0˜3.0×10^3/well)”, “hours, 90” for “hours, 100”, “and 10” for “and 2”, “vehicle (40% PBS, pH 7.4)” for “vehicle (5% ethanol and 5% Cremophor® RH40)”, “compound, CK derivative,” for “compound, CK,”
The measured results were calculated according to the following formulas: • PG (Percent Growth): PG(%)=100%×(Mean Ftest-Mean Ftime0)/(Mean Fctrl-Mean Ftime0) • If (Mean Ftest-Mean Ftime0)<0, then PG(%)=100%×(Mean Ftest-Mean Ftime0)/(Mean Ftime0-Mean Fblank) wherein • Mean Ftime0=The average of two measured fluorescent intensities of reduced alamarBlue at the time just before exposure of cells to the test compound; • Mean Ftest=The average of two measured fluorescent intensities of alamarBlue after 72-hour exposure of cells to the test compound; • Mean Fctrl=The average of two measured fluorescent intensities of alamarBlue after 72-hour incubation without the test compound; • Mean Fblank=The average of two measured fluorescent intensities of alamarBlue in medium without cells after 72-hour incubation. […]

[2] = tested on: MCF-7 (Breast adenocarcinoma, pleural effusion, human); test: Anti-cancer activity assay, alamarBlue cell growth, MCF-7; settings: 72-hour incubation, CK in 5% ethanol/5% Cremophor RH40, derivatives in PBS pH 7.4, read-out: IC50 (μM) of CK, CK succinate and CK glutarate derivatives, MCF-7
Description: as §1, with “The culture medium used for A549 was F-12K nutrient mixture (Kaighn's Modification), 90%; and fetal bovine serum 10%. The culture medium used for HT-29 was McCoy's 5A medium, 90%; and fetal bovine serum, 10%. The culture medium used for MCF-7 was Minimum Essential Medium, 90%; and fetal bovine serum, 10%.” left out
(§3) Aliquots of 100 μl of cell suspension (about 1.0˜3.0×10^3/well) were placed in 96-well microtiter plates in an atmosphere of 5% CO2 at 37° C. […] The test compound, CK, was evaluated at concentrations of 100, 10, 1, 0.1, 0.01 μg/ml. […] Fluorescent intensity was measured using a SPECTRAfluor Plus plate reader with excitation at 530 nm and emission at 590 nm. […]
as §3, with “5.0×10^3/well)” for “1.0˜3.0×10^3/well)”, “CK derivative,” for “CK,”

[3] = tested on: HT-29 (Adenocarcinoma, colon, moderately well-differentiated grade II, human); test: Anti-cancer activity assay, alamarBlue cell growth, HT-29; settings: 72-hour incubation, CK in 5% ethanol/5% Cremophor RH40, derivatives in PBS pH 7.4, read-out: IC50 (μM) of CK, CK succinate and CK glutarate derivatives, HT-29
Description: as §1, with “The culture medium used for A549 was F-12K nutrient mixture (Kaighn's Modification), 90%; and fetal bovine serum 10%. The culture medium used for HT-29 was McCoy's 5A medium, 90%; and fetal bovine serum, 10%. The culture medium used for MCF-7 was Minimum Essential Medium, 90%; and fetal bovine serum, 10%.” left out
as §3
as §3, with “5.0×10^3/well)” for “1.0˜3.0×10^3/well)”, “CK derivative,” for “CK,”

[4] = tested on: A549 (Carcinoma, lung, human); test: Anti-cancer activity assay, alamarBlue cell growth, A549; settings: 72-hour incubation, CK in 5% ethanol/5% Cremophor RH40, derivatives in PBS pH 7.4, read-out: IC50 (μM) of CK, CK succinate and CK glutarate derivatives, A549
Description: as §1, with “The culture medium used for A549 was F-12K nutrient mixture (Kaighn's Modification), 90%; and fetal bovine serum 10%. The culture medium used for HT-29 was McCoy's 5A medium, 90%; and fetal bovine serum, 10%. The culture medium used for MCF-7 was Minimum Essential Medium, 90%; and fetal bovine serum, 10%.” left out
as §3
as §3, with “5.0×10^3/well)” for “1.0˜3.0×10^3/well)”, “CK derivative,” for “CK,”

[5] = OVCAR-3 tumor cell, Table 4, read-out: IC50 (μM) of ginsenosides and it's succinate derivatives on OVCAR-3 tumor cell
[6] = OVCAR-3, 72-hour incubation, alamarBlue, CK in 5% ethanol/5% Cremophor RH40, derivatives in PBS pH 7.4, read-out: IC50 (μM) of CK, CK succinate and CK glutarate derivatives, OVCAR-3

| Compound | IC50 [1, 5] [µM] | IC50 [1, 6] [µM] | further results |
| --- | --- | --- | --- |
| CC(C)=CCCC(C)(O)[C@H]1CC[C@]2(C)[C@@H]1[C@H](O)C[C@@H]1[C@@]3(C)CC[C@H](O)C(C)(C)[C@@H]3CC[C@]12C (stereo in doubt) [GS40, protopanaxadiol, reference compound] | 28.2 |  |  |
| CC(C)=CCC[C@](C)(O[C@@H]1O[C@H](CO)[C@@H](O)[C@H](O)[C@H]1O)[C@H]1CC[C@]2(C)[C@@H]1[C@H](O)C[C@@H]1[C@@]3(C)CC[C@H](O)C(C)(C)[C@@H]3[C@@H](O)C[C@]12C [GS30, F1, reference compound] | 50.1 |  |  |
| CC(C)=CCCC(C)(OC1OC(CO)C(O)C(OC(=O)CCC(=O)O)C1O)C1CCC2(C)C1C(O)CC1C3(C)CCC(O)C(C)(C)C3C(O)CC12C (stereo not shown) [GS32, F1-3′-monosuccinate] | 14.9 |  |  |
| CC(C)=CCCC(C)(O)C1CCC2(C)C1C(OC(=O)CCC(=O)O)CC1C3(C)CCC(O)C(C)(C)C3CCC12C (stereo not shown) [GS41, PPD-12-monosuccinate] | 42.8 |  |  |
| CC(C)=CCCC(C)(O)C1CCC2(C)C1C(OC(=O)CCC(=O)O)CC1C3(C)CCC(OC(=O)CCC(=O)O)C(C)(C)C3CCC12C (stereo not shown) [GS42, PPD-3,12-disuccinate] | 30.3 |  |  |
| CC(C)=CCC[C@](C)(O)[C@H]1CC[C@]2(C)[C@@H]1[C@H](O)C[C@@H]1[C@@]3(C)CC[C@H](O)C(C)(C)[C@@H]3[C@@H](O)C[C@]12C [GS50, protopanaxatriol, reference compound] | 31.5 |  |  |
| CC(C)=CCCC(C)(O)C1CCC2(C)C1C(OC(=O)CCC(=O)O)CC1C3(C)CCC(O)C(C)(C)C3C(O)CC12C (stereo not shown) [GS51, PPT-12-monosuccinate] | 31.2 |  |  |
| CC(C)=CCCC(C)(O)C1CCC2(C)C1C(OC(=O)CCC(=O)O)CC1C3(C)CCC(OC(=O)CCC(=O)O)C(C)(C)C3C(O)CC12C (stereo not shown) [GS52, PPT-3,12-disuccinate] | 26.6 |  |  |
| CC(C)=CCCC(C)(O)C1CCC2(C)C1C(OC(=O)CCC(=O)O)CC1C3(C)CCC(OC(=O)CCC(=O)O)C(C)(C)C3C(OC(=O)CCC(=O)O)CC12C (stereo not shown) [GS53, PPT-3,6,12-trisuccinate] | 47.6 |  |  |
| CC(C)=CCCC(C)(OC1OC(COC(=O)CCC(=O)O)C(O)C(O)C1O)C1CCC2(C)C1C(O)CC1C3(C)CCC(O)C(C)(C)C3CCC12C (stereo not shown) [GS-6, CK-6′-monosuccinate] |  | 22.1 |  |
| CC(C)=CCC[C@](C)(O[C@@H]1O[C@H](CO)[C@@H](O)[C@H](OC(=O)CCC(=O)O)[C@H]1O)[C@H]1CC[C@]2(C)[C@@H]1[C@H](O)C[C@@H]1[C@@]3(C)CC[C@H](O)C(C)(C)[C@@H]3CC[C@]12C [GS-8, CK-3′-monosuccinate] |  | 19.3 | IC50 [2]: 53.9 µM; IC50 [3]: 71.9 µM; IC50 [4]: 31.8 µM |
| CC(C)=CCCC(C)(OC1OC(COC(=O)CCC(=O)O)C(O)C(OC(=O)CCC(=O)O)C1O)C1CCC2(C)C1C(O)CC1C3(C)CCC(O)C(C)(C)C3CCC12C (stereo not shown) [GS-9, CK-3′,6,-disuccinate] |  | 89.9 |  |
| CC(C)=CCCC(C)(OC1OC(COC(=O)CCC(=O)O)C(OC(=O)CCC(=O)O)C(OC(=O)CCC(=O)O)C1O)C1CCC2(C)C1C(O)CC1C3(C)CCC(O)C(C)(C)C3CCC12C (stereo not shown) [GS-11, CK-3′,4′,6′-trisuccinate] |  | > 100 |  |
| CC(C)=CCC[C@](C)(O[C@@H]1O[C@H](CO)[C@@H](O)[C@H](O)[C@H]1O)[C@H]1CC[C@]2(C)[C@@H]1[C@H](O)C[C@@H]1[C@@]3(C)CC[C@H](O)C(C)(C)[C@@H]3CC[C@]12C [GS-12, 20-O-β-D-glucopyranosyl-protopanaxadiol, reference compound] |  | 2.7 | IC50 [2]: 11.2 µM; IC50 [3]: 9.3 µM; IC50 [4]: 17.7 µM |
| CC(C)=CCCC(C)(OC1OC(CO)C(O)C(OC(=O)CCCC(=O)O)C1O)C1CCC2(C)C1C(O)CC1C3(C)CCC(O)C(C)(C)C3CCC12C (stereo not shown) [GS-13, CK-3′-monoglutarate] |  | 69.1 |  |
| CC(C)=CCCC(C)(OC1OC(COC(=O)CCCC(=O)O)C(O)C(OC(=O)CCCC(=O)O)C1O)C1CCC2(C)C1C(O)CC1C3(C)CCC(O)C(C)(C)C3CCC12C (stereo not shown) [GS-14, CK-3′,6′-diglutarate] |  | 79.8 |  |
